In patent US8093183B2, “Methods for using polyol esters to control pests” (S.C. Johnson & Son, Inc., priority 2004, dated 2012):
Like-named read-outs stand apart in the source and are kept apart here.

Test system: German cockroaches
Conditions: spraying about three grams of formulation
From the text: In our experiments we created aqueous solutions of sucrose octanoate and sorbitol octanoate by diluting the more concentrated formulations provided by the aforesaid manufacturers. We created varied concentrations ranging from 0.05% through 10%.
We tested our formulations by spraying them on cockroaches, ants, crickets, silverfish, wasps, bristletails, hornets, centipedes, earwigs, spiders and sowbugs.

Substance: sucrose octanoate
- kill at 24 hours (0.1% concentration): essentially no kill
- kill at 24 hours (1% concentration): about 80%
- kill (5% concentration): 100%
